One experiment concerns FLT3-ITD-BaF3. The experiment can be described thus: Proliferation of FLT3-ITD-BaF3 cells, CCK8 cell viability assay. Type of experiment: cell-based. Particulars: Mus musculus, 72 hours, stably expressing FLT3/ITD. The method in brief: (§1)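 Human kinase-region sequences were PCR-amplified, fused behind N-terminal TEL in MSCV-Puro and stably introduced into mouse BaF3 by retrovirus. IL-3 was then removed to give kinase-dependent lines. Compound effects on these and on parental BaF3 are scored as GI50 (μM) via CCK8 viable-cell quantification.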

A further experiment deals with Tel-cKit/T670I-BaF3. The experiment can be described thus: Proliferation of Tel-cKit/T670I-BaF3 cells, CCK8 cell viability assay. In kind it is cell-based. To be noted: Mus musculus, 72 hours, stably expressing cKIT/T670I. An outline of the steps:
(§2)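 GI50 (μM) from CCK8 read-out, which measures reductive dehydrogenase activity in living cells. Cells: parental mouse BaF3, or BaF3 stably expressing TEL-fused human cKIT, PDGFRα or PDGFRβ kinase domains and grown without IL-3, making them kinase-dependent.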
(In general: Formazan colour is commonly taken as a measure of viable cells.)

The test system of experiment [1] is human acute myeloid leukemia cell strain OCI-AML-3. The experiment is described as follows: Proliferation of OCI-AML-3 cells, Cell Titer-Glo. Type of experiment: cell-based. To be noted: 72 hours, FLT3 A680V. On the procedure: (§3) In addition, in this example the inhibitory activity of preferred compounds (Compound 5 and Compound 135) was tested against the following cell strains: human acute myeloid leukemia cell strain MV4-11 (expressing FLT3/ITD mutant gene), human acute myeloid leukemia cell strain MOLM-13 (expressing FLT3/ITD mutant gene and wild-type FLT3 gene), human acute myeloid leukemia cell strain MOLM-14 (expressing FLT3/ITD mutant gene and wild-type FLT3 gene), human acute myeloid leukemia cell strain OCI-AML-3 (expressing FLT3 A680V mutant gene), human chronic lymphatic leukemia cell strain MEC-1, Chinese hamster lung (CHL) cells, Chinese hamster ovary (CHO) cells, wherein all the cells were purchased from ATCC. In the example the compounds of the present invention were added respectively into the above cells at different concentrations (0.000508 μM, 0.00152 μM, 0.00457 μM, 0.0137 μM, 0.0411 μM, 0.123 μM, 0.370 μM, 1.11 μM, 3.33 μM, 10 μM in DMSO) and the cells were incubated for 72 hours. The number of viable cells was determined by quantification of ATP in living cells using Cell Titer-Glo® (Promega, the USA) Luminescent Cell Viability Assay kit and thereby GI50 was calculated.

Another experiment relates to BaF3. The experiment is described as follows: Proliferation of BaF3 cells, CCK8 cell viability assay. To be noted: Mus musculus, 72 hours. In kind it is cell-based. An outline of the steps:
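Parental murine BaF3 and IL-3-independent BaF3 transformants driven by TEL–cKIT, TEL–PDGFRα or TEL–PDGFRβ, with human kinase domains stably transduced by retrovirus. CCK8 dehydrogenase read-out gives GI50 (μM).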

Experiment [2] relates to human acute myeloid leukemia cell strain MV4-11. The experiment is described as follows: Proliferation of MV4-11 cells, Cell Titer-Glo. Type of experiment: cell-based. Particulars: for GI50: Homo sapiens, MV4-11, 72 hours, Cell Titer-Glo, FLT3/ITD. The protocol: as §3
(In general: Cellular ATP, detected with luciferase, serves as a proxy for viable cell number.)

A further experiment concerns TEL-PDGFRβ-BaF3. The experiment is described as follows: Proliferation of TEL-PDGFRβ-BaF3 cells, CCK8 cell viability assay. Type of experiment: cell-based. Particulars: Mus musculus, 72 hours, stably expressing PDGFRβ kinase. An outline of the steps: as §2
Another experiment has as its system Tel-RET-BaF3. The experiment is described as follows: Proliferation of Tel-RET-BaF3 cells, CCK8 cell viability assay. Type of experiment: cell-based. To be noted: Mus musculus, 72 hours, stably expressing RET kinase.
A short description of experiment [3]: Phosphorylation of STATS downstream of FLT3 in AML cells. Particulars: MV-4-11, MOLM13 and MOLM-14; 4 hours; compounds 0.01-3 μM, PKC412 1 μM. In kind it is cell-based, human. On the procedure: In cells having FLT3 gene and/or FLT3/ITD mutant gene, specifically, human acute myeloid leukemia cells MV4-11 (expressing FLT3/ITD mutant gene) cell strain and human acute myeloid leukemia cells MOLM-13 and MOLM-14 (expressing FLT3/ITD mutant gene and wild-type FLT3 gene) cell strains, Compound 5, Compound 135 and a FLT3 kinase inhibitor, PKC412 (purchased from Hao Yuan Chemexpress Company, Shanghai), which was used as the control, were evaluated for their effects in cells on phosphorylation of FLT3 and FLT3/ITD protein kinase and phosphorylation of the closely-related STATS protein which is downstream of FLT3 signaling pathways, as well as their effects on phosphorylation of other relevant protein kinases such as ERK and AKT, by assaying a number of cellular biochemical and functional endpoints. In addition, the effects on C-Myc and phosphorylation of the transcription factor NF-κB subunit p65 was also examined (FIGS. 1a-1f). Compound 5 and Compound 135 at different concentrations (0 μM, 0.01 μM, 0.03 μM, 0.1 μM, 0.3 μM, 1 μM, 3 μM in DMSO) and the FLT3 kinase inhibitor PKC412 (1 μM in DMSO) were used to treat acute myeloid leukemia cells MV-4-11, MOLM13 and MOLM-14 that had FLT3 and/or FLT3/ITD gene for 4 hours, respectively, and then the samples were collected. The effects of the compounds on the phosphorylation of proteins such as STATS, C-Myc, ERK, NF-κB p65, AKT in cells were tested (FIGS. 1a-1f).

Experiment [4] relates to human chronic lymphatic leukemia cell strain MEC-1. The experiment can be described thus: Proliferation of MEC-1 cells, Cell Titer-Glo. In kind it is cell-based. Particulars: MEC1, 72 hours. On the procedure:
as §3

In experiment [5] the test system is Chinese hamster ovary (CHO) cells. The experiment can be described thus: cells. Type of experiment: cell-based. Particulars: Cricetulus griseus, 72 hours, Cell Titer-Glo. The protocol: as §3
Experiment [6] deals with Chinese hamster lung (CHL) cells. The experiment is described as follows: cells. In kind it is cell-based. Particulars: Cricetulus griseus, 72 hours, Cell Titer-Glo. On the procedure:
as §3

For another experiment, the system named is TEL-VEGFR2-BaF3. The experiment is described as follows: Proliferation of TEL-VEGFR2-BaF3 cells, CCK8 cell viability assay. In kind it is cell-based. Particulars: Mus musculus, 72 hours, stably expressing VEGFR2 kinase. The method in brief:
as §1

Experiment [7] deals with human acute myeloid leukemia cell strain MOLM-13. The experiment is described as follows: Proliferation of MOLM-13 cells, Cell Titer-Glo. In kind it is cell-based. Particulars: for GI50: Homo sapiens, MOLM-13, 72 hours, Cell Titer-Glo, FLT3/ITD and wild-type FLT3, read-out: GI50 MOLM13. The protocol: as §3

As a reminder, the GI50 is the concentration that inhibits growth by half. For `CC(=O)Nc1cc(Oc2ccc(NC(=O)Cc3ccc(F)cc3F)cc2)ncn1` [Example 5, N-[4-(6-acetylamino-pyrimidin-4-yloxy)-phenyl]-2-(2,4-difluoro-phenyl)-acetamide], the 50% growth inhibitory concentration (GI50) with FLT3-ITD-BaF3 is 30 nM; with Tel-cKit/T670I-BaF3, more than 10000 nM; in [1], more than 10000 nM; with BaF3, more than 10000 nM; in experiment [2], 147 nM; in the experiment with TEL-PDGFRβ-BaF3 it was 58 nM. The GI50 is more than 10000 nM with Tel-RET-BaF3; more than 10000 nM in experiment [4]; more than 10000 nM in experiment [5]; more than 10000 nM in [6]; 357 nM in the experiment with TEL-VEGFR2-BaF3; 267 nM in experiment [7]. In addition, the “inhibition of MV4-11 (in words)” value in experiment [2] (summary of Table 3) was “selectively and strongly inhibited”. For the same compound, the “phosphorylation of STATS” value in experiment [3] is reported as “significant inhibition”. Also, the “inhibition of MOLM13 (in words)” value in experiment [7] (summary of Table 3) was “selectively and strongly inhibited”.

With `CC(=O)Nc1cc(Oc2ccc(NC(=O)Cc3ccccc3C(F)(F)F)cc2)ncn1` [Example 135, N-[4-(6-acetylamino-pyrimidin-4-yloxy)-phenyl]-2-(2-trifluoromethyl-phenyl)-acetamide], the concentration for 50% growth inhibition (GI50) in the experiment on FLT3-ITD-BaF3 is 32 nM; with Tel-cKit/T670I-BaF3, more than 10000 nM; in [1] it was more than 10000 nM; in the experiment on BaF3 it was more than 10000 nM; in [2] it was 284 nM; with TEL-PDGFRβ-BaF3 it was 40 nM. Moreover, the GI50 in the experiment on Tel-RET-BaF3 is more than 10000 nM; in [4], more than 10000 nM; in [5], more than 10000 nM; in [6], more than 10000 nM; in the experiment with TEL-VEGFR2-BaF3 it was 1440 nM; in [7], 466 nM. Further, the “phosphorylation of STATS” value in experiment [3] was “significant inhibition”.

The record behind these values is patent publication US11602534B2, “Pyrimidine derivative kinase inhibitors” (HEFEI INSTITUTES OF PHYSICAL SCIENCE, CHINESE ACADEMY OF …, priority 2017, dated 2023).
